{"source": "patent US12501895B2", "about": "“Composition for cryopreservation of myocardial cells” (BEIJING BAHEAL WISART MEDICAL RESEARCH CO., LTD, priority 2020, dated 2025)", "system": "human cardiomyocytes", "assay": "ex vivo culture of human cardiomyocytes for 7 days, rod-shaped rate (Example 4)", "assay_type": "cell-based", "settings": "5-50 μM PAB versus 10 μM BLEB in M199 basal medium, cultured 7 days at 37° C., FIG. 4", "procedure": "The purpose of this experiment was to investigate the effects of BLEB and PAB on cell survival rate and morphology during the ex vivo survival of cardiomyocytes, so as to predict the similarity of their roles during cryopreservation and resuscitation of cardiomyocytes.\n10% fetal bovine serum, 100 U/ml penicillin and 100 μg/ml streptomycin were added to the M199 medium (purchased from Sigma Inc.), and the resulting medium was used as a basal medium. The experiments were divided into 6 groups, in which DMSO (as a control group), as well as 10 μM BLEB and 5 μM, 10 μM, 20 μM, and 50 μM PAB were added to the basal medium, respectively. The isolated human cardiomyocytes were divided into 6 groups, and the cells were plated on a 48-well cell culture plate coated with 200 μg/ml laminin in advance using 6 media, and the plate was placed and cultured in a cell incubator (with 5% CO2, and a relative saturated humidity of 95%) at 37° C. for 7 days."}
{"smiles": "Cc1ccc2c(c1)C(=O)[C@]1(O)CCN(c3ccc(N)cc3)C1=N2", "note": "[PAB, para-aminoblebbistatin]", "values": [{"measurement": "rod-shaped rate of cardiomyocytes", "result": "close to or even better than the 10 μM BLEB group"}]}
